Reference: US20230183243A1, “HETEROARYL DERIVATIVES AND PHARMACEUTICAL COMPOSITION COMPRISING SAME AS ACTIVE INGREDIENT” (VORONOI INC., priority 2019, published 2023)

How the values were obtained:
TTK = molecular target: T1, TTK (Homo sapiens, UniProt P33981); experiment: TTK enzyme activity, ADP-Glo kinase assay; assay type: biochemical; set-up: purchased SignalChem T20-10G; conditions: purified human TTK, ATP 10 μM, 25° C., 2 hours
T1 sequence (P33981 1-857): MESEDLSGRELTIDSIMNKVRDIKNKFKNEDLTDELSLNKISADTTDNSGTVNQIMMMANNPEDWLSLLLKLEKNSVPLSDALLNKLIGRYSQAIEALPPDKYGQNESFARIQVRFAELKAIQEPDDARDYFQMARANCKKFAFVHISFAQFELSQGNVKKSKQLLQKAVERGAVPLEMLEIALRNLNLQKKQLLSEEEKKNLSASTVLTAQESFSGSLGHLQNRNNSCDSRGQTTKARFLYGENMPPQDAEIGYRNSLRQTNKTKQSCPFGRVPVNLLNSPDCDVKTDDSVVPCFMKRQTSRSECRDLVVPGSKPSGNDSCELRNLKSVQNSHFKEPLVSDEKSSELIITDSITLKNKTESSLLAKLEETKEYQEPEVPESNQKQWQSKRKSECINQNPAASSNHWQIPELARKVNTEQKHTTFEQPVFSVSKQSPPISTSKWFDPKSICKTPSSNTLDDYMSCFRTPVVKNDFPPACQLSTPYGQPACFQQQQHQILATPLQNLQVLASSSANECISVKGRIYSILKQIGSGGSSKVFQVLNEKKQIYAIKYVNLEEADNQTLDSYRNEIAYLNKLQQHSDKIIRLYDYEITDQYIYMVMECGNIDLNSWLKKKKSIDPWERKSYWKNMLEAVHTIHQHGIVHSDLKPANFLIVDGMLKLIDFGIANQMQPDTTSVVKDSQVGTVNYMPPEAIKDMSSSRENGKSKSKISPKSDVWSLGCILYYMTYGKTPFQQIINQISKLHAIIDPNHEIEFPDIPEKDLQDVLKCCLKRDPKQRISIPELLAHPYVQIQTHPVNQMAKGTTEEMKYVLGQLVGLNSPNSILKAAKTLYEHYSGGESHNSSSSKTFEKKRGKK
In short: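 Purified human TTK (25 ng) incubated with 10 μM ATP and substrate (0.2 μg) for 2 h at 25 °C in Tris-HCl pH 7.4, MgCl2, BSA, DTT buffer. ADP formation read by ADP-Glo; inhibition calculated against untreated solvent control.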

SHP-77 = experiment: Inhibition of proliferation of small cell lung cancer cells, CellTiter-Glo; assay type: cell-based; conditions: Homo sapiens, SHP77, 120 h; SHP-77, cultured for 5 days
Method: Specifically, the following test was performed to evaluate the inhibitory activity of the compound according to the present invention against the cell proliferation in the SCLC cells.
To check an inhibitory ability of cell growth in one SCLC cell line, a test was performed as follows. Cells were seeded in 180 μL of a culture broth at a density of 2,000 to 3,000 cells/well in a white clear bottom 96-well plate (Corning) according to the growth ability of each cell, and then cultured for 24 hours under conditions of 5% CO2 and 37° C. Thereafter, the compound was prepared by diluting a 10 mM stock solution three-fold with 100% DMSO at a total of 12 concentrations so that a peak concentration of the compound was in a range of 10 mM to 0.05 μM, and the diluted compound was then diluted in each cell culture medium so that a final concentration of the compound was in a range of 100 μM to 0.5 nM. 20 μL of a diluted solution diluted with a medium was added to the cell solution in which cells were seeded in the 96-well plate on the previous day so that a final concentration of the diluted solution was in a range of 10 μM to 0.05 nM. Each of the cells was cultured for 5 days. To check cell viability, a mixture provided in aCellTiter-Glo® Luminescent Cell Viability Assay Kit (Promega) was added to each of the cultured cell media, and cultured for another 10 minutes under a condition of 37° C. Then, a degree of luminescence (fluorescence) was measured. A degree of inhibition of the cell growth according to the treatment concentration of each of the compounds was calculated based on the fluorescence of the solvent control cells which were not treated with the compound. In this case, the concentration of each of the compounds inhibiting 50% of the cell growth was determined to be a GI50 (nM) value, and calculated using Prism (Version 7.01; GraphPad) software.

MDA-MB-231 cells = experiment: Inhibition of proliferation of triple-negative breast cancer cells, CellTiter-Glo; assay type: cell-based; conditions: Homo sapiens, 120 h; MDA-MB-231, cultured for 5 days
In short: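 MDA-MB-231 cells pre-cultured 24 h (5% CO2, 37 °C), then exposed to compound for 5 days at 12 three-fold dilutions, final 10 μM to 0.05 nM. Viability read by CellTiter-Glo luminescence after 10 min at 37 °C; growth inhibition calculated relative to untreated solvent-control cells.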

| Compound | IC50 (TTK) [nM] | GI50 (SHP-77) [nM] | GI50 (MDA-MB-231 cells) [nM] |
| --- | --- | --- | --- |
| CC1(C)CC(Nc2nc(Nc3cccc4c3OCCO4)nc3[nH]cc(C#N)c23)CCO1 (stereo not shown) [Example 171] | < 50 | < 100 | < 100 |
| Cn1nccc1-c1ccc(Nc2cc(NC3CCCC3)c3c(C#N)c[nH]c3n2)c2c1OCCO2 [Example 88, 4-(cyclopentylamino)-6-((8-(1-methyl-1H-pyrazol-5-yl)-2,3-dihydrobenzo[b][1,4]dioxin-5-yl)amino)-1H-pyrrolo[2,3-b] pyridine-3-carbonitrile] | 50 to 200 | < 100 | < 100 |
| COc1cc(-c2ccnn2C)ccc1Nc1nc(C2CC2)c2c(C#N)c[nH]c2n1 [Example 111, 4-cyclopropyl-2-((2-methoxy-4-(1-methyl-1H-pyrazol-5-yl)phenyl)amino)-7H-pyrrolo[2,3-d] pyrimidine-5-carbonitrile] | < 50 | < 100 | < 100 |
| COc1cc(N2CCCS2(=O)=O)ccc1Nc1nc(NC2CCOCC2)c2c(C(F)(F)F)c[nH]c2n1 [Example 174, 2-(3-methoxy-4-((4-((tetrahydro-2H-pyran-4-yl)amino)-5-(trifluoromethyl)-7H-pyrrolo[2,3-d]pyrimidin-2-yl)amino)phenyl)isot hiazolidine 1,1-dioxide] | < 50 | < 100 | < 100 |
| COC[C@@H](C)Nc1nc(Nc2ccc(-c3cnn(C)c3)c3c2OCCO3)nc2[nH]cc(C#N)c12 [Example 169] | < 50 | < 100 | < 100 |
| COc1cc(-c2ccnn2C)ccc1Nc1nc(NC2CCOCC2)c2c(C(F)(F)F)c[nH]c2n1 [Example 106, N^2-(2-methoxy-4-(1-methyl-1H-pyrazol-5-yl)phenyl)-N^4-(tetrahydro-2H-pyran-4-yl)-5-(trifluoromethy1)-7H-pyrrolo[2,3-d] pyrimidine-2,4-diamine] | 50 to 200 | < 100 | < 100 |
| COc1cc(Nc2nc(NC3CCCCC3)c3c(C#N)c[nH]c3n2)ccc1-c1ccnn1C [Example 121, 4-(cyclohexylamino)-2-((3-methoxy-4-(1-methyl-1H-pyrazol-5-yl)phenyl)amino)-7H-pyrrolo[2,3-d] pyrimidine-5-carbonitrile] | < 50 | < 100 | < 100 |
| Cn1nccc1-c1ccc(Nc2nc(NC3CCC(F)(F)C3)c3c(C#N)c[nH]c3n2)c2c1OCCO2 (stereo not shown) [Example 116, 4-((3,3-difluorocyclopentyl)amino)-2-((8-(1-methyl-1H-pyrazol-5-yl)-2,3-dihydrobenzo[b][1,4]dioxin-5-yl)amino)-7H-pyrrolo[2,3-d] pyrimidine-5-carbonitrile] | < 50 | < 100 | < 100 |
| Cn1nccc1-c1ccc(Nc2nc(NC3CCOC(C)(C)C3)c3c(C#N)c[nH]c3n2)c2c1OCCO2 (stereo not shown) [Example 109, 4-((2,2-dimethyltetrahydro-2H-pyran-4-yl)amino)-2-((8-(1-methyl-1H-pyrazol-5-yl)-2,3-dihydrobenzo[b][1,4]dioxin-5-yl)amino)-7H-pyrrolo[2,3-d] pyrimidine-5-carbonitrile] | < 50 | < 100 | < 100 |
| N#Cc1c[nH]c2nc(Nc3ccc(N4CCCS4(=O)=O)c(F)c3)nc(NC3CCOCC3)c12 [Example 29] | < 50 | 100 to 1000 | 100 to 1000 |
| N#Cc1c[nH]c2nc(Nc3ccc(N4CCCCS4(=O)=O)cc3)nc(NC3CCCC3)c12 [Example 156, 4-(cyclopentylamino)-2-((4-(1,1-dioxido-1,2-thiazinan-2-yl)phenyl)amino)-7H-pyrrolo[2,3-d] pyrimidine-5-carbonitrile] | < 50 | < 100 | < 100 |
| COc1cc(Nc2nc(NC3CCCCC3)c3c(C#N)c[nH]c3n2)ccc1-c1c(C)noc1C [Example 140, 4-(cyclohexylamino)-2-((4-(3,5-dimethylisoxazol-4-yl)-3-methoxyphenyl)amino)-7H-pyrrolo[2,3-d] pyrimidine-5-carbonitrile] | 200 to 1000 | < 100 | < 100 |
| COCCNc1nc(Nc2ccc(-c3nncn3C)cc2OC)nc2[nH]cc(C#N)c12 [Example 95, 2-((2-methoxy-4-(4-methyl-4H-1,2,4-triazol-3-yl)phenyl)amino)-4-((2-methoxyethyl)amino)-7H-pyrrolo[2,3-d] pyrimidine-5-carbonitrile] | < 50 | < 100 | 100 to 1000 |
| Cn1nccc1-c1ccc(Nc2nc(NC3CC3)c3c(C#N)c[nH]c3n2)c2c1OCCO2 [Example 99, 4-(cyclopropylamino)-2-((8-(1-methyl-1H-pyrazol-5-yl)-2,3-dihydrobenzo[b][1,4]dioxin-5-yl)amino)-7H-pyrrolo[2,3-d] pyrimidine-5-carbonitrile] | < 50 | < 100 | < 100 |
| COc1cc(-c2ccnn2C)ccc1Nc1nc(NC2CCOC(C)(C)C2)c2c(C#N)c[nH]c2n1 (stereo not shown) [Example 115, 4-((2,2-dimethyltetrahydro-2H-pyran-4-yl)amino)-2-((2-methoxy-4-(1-methyl-1H-pyrazol-5-yl)phenyl)amino)-7H-pyrrolo[2,3-d] pyrimidine-5-carbonitrile] | < 50 | < 100 | < 100 |
| COc1cc(-c2c(C)noc2C)ccc1Nc1nc(NC2C[C@H]3CC[C@@H]2C3)c2c(C#N)c[nH]c2n1 (stereo partly drawn) [Example 146, 4-(((1R,4S)-bicyclo[2.2.1]heptan-2-yl)amino)-2-((4-(3,5-dimethylisoxazol-4-yl)-2-methoxyphenyl)amino)-7H-pyrrolo[2,3-d] pyrimidine-5-carbonitrile] | < 50 | < 100 | < 100 |
| COc1cc(-c2c(C)noc2C)ccc1Nc1nc(NC2CCOCC2)c2c(C(F)(F)F)c[nH]c2n1 [Example 131, N^2-(4-(3,5-dimethylisoxazol-4-yl)-2-methoxyphenyl)-N^4-(tetrahydro-2H-pyran-4-yl)-5-(trifluoromethyl)-7H-pyrrolo[2,3-d] pyrimidine-2,4-diamine] | 50 to 200 | < 100 | < 100 |
| N#Cc1c[nH]c2nc(Nc3ccc(N4CCCCS4(=O)=O)c(F)c3)nc(NC3CCCC3)c12 [Example 57, 4-(cyclopentylamino)-2-((4-(1,1-dioxido-l,2-thiazinan-2-yl)-3-fluorophenyl)amino)-7H-pyrrolo[2,3-d] pyrimidine-5-carbonitrile] | 50 to 200 | < 100 | 100 to 1000 |
| COc1cc(-c2ccnn2C)ccc1Nc1nc(NC2COC2)c2c(C#N)c[nH]c2n1 [Example 161, 2-((2-methoxy-4-(1-methyl-1H-pyrazol-5-yl)phenyl)amino)-4-(oxetan-3-ylamino)-7H-pyrrolo[2,3-d] pyrimidine-5-carbonitrile] | – | > 1000 | > 1000 |
| Cn1nccc1-c1ccc(Nc2nc(NC3COC3)c3c(C#N)c[nH]c3n2)c2c1OCCO2 [Example 160, 2-((8-(1-methyl-1H-pyrazol-5-yl)-2,3-dihydrobenzo[b][1,4]dioxin-5-yl)amino)-4-(oxetan-3-ylamino)-7H-pyrrolo[2,3-d] pyrimidine-5-carbonitrile] | – | > 1000 | > 1000 |
